# Measurements published in patent publication US7355042B2, “Treatment of CNS disorders using CNS target modulators” (Hypnion, Inc., priority 2001, dated 2008).
# “And” between values parts separate entries of the source, which are not always exact repeats. Identical values can stand only once. Counter-ions that a name gives are not always drawn. Like-named read-outs stand apart in the source and are kept apart here. Marks after values point to notes of the source that are not given here.
# How the values were obtained:
# [1] = test system: M3 receptor from guinea pig ileum membranes; details: read-out: Ki of reference compounds, M3 binding assay; cited from earlier work
# [2] = target: T1, human recombinant M1 muscarinic receptor expressed in CHO cells (Homo sapiens, UniProt P11229); details: read-out: Ki of reference compounds, M1 binding assay; cited from earlier work
# T1 construct: expressed in transfected cells; host or cells: CHO cells
# T1 sequence (P11229 1-460): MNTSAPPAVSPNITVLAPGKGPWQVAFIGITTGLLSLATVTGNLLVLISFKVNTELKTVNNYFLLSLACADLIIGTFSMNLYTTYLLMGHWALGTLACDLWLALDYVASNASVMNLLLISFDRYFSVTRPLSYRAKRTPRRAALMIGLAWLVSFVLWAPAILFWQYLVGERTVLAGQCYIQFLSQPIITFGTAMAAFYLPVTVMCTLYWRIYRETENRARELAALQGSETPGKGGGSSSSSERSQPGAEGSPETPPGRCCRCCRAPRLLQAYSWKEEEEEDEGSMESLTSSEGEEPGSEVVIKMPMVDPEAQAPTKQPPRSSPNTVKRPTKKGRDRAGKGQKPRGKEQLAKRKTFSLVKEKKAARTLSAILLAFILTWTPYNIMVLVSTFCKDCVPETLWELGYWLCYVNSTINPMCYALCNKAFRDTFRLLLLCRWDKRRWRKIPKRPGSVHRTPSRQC
# [3] = target: T2, M2 receptor from rat cardiac membranes (Rattus norvegicus, UniProt P10980); details: read-out: Ki of reference compounds, M2 binding assay; cited from earlier work
# T2 construct: the M2 receptor was from rat cardiac membranes; from tissue; host or cells: rat cardiac membranes
# T2 sequence (P10980 1-466): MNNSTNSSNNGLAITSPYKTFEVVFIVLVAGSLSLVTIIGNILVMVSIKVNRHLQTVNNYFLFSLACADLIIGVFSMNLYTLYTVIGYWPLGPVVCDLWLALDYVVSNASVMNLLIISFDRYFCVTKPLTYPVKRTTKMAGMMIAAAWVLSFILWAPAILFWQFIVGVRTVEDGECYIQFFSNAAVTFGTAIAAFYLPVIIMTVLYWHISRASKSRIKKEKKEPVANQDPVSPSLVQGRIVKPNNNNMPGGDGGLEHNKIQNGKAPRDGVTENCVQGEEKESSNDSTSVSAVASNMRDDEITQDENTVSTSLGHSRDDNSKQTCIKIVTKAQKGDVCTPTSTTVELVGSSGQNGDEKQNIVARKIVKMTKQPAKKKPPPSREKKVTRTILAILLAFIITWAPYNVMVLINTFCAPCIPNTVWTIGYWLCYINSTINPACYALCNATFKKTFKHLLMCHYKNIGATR
# [4] = target: Norepinephrine Transporter (Homo sapiens, UniProt P23975); assay: Receptor selectivity binding comparison: Norepinephrine Transporter; details: 1.0E−6
# Histamine, H2 = Histamine, H2 (Homo sapiens, UniProt P25021); assay: Receptor selectivity binding comparison: Histamine H2; details: 1.0E−6
# [5] = target: cloned hERG channels expressed in HEK293 cells (Homo sapiens, UniProt Q12809); assay: hERG block comparative study, whole cell recording; details: table title 1.0E−6
# male Wistar rats = assay: Sleep-wakefulness, locomotor activity and body temperature monitoring (SCORE-2000); assay type: in vivo, rat
# [6] = target: T1, human recombinant M1 muscarinic receptor expressed in CHO cells; assay: M1 binding assay (human recombinant), [3H]-scopolamine N-methyl chloride
# [7] = target: T3, H1 receptor from bovine cellular membranes (Bos taurus, UniProt P30546); assay: H1 binding assay, [3H]pyrilamine displacement; details: Examples 15-17; read-out: Ki, H1 binding assay
# T3 construct: the H1 receptor was from bovine cellular membranes; from tissue
# [8] = target: T4, human recombinant M2 muscarinic receptor expressed in CHO cells (Homo sapiens, UniProt P08172); assay: M2 binding assay (human recombinant)
# T4 construct: expressed in transfected cells; host or cells: CHO cells
# T4 sequence (P08172 1-466): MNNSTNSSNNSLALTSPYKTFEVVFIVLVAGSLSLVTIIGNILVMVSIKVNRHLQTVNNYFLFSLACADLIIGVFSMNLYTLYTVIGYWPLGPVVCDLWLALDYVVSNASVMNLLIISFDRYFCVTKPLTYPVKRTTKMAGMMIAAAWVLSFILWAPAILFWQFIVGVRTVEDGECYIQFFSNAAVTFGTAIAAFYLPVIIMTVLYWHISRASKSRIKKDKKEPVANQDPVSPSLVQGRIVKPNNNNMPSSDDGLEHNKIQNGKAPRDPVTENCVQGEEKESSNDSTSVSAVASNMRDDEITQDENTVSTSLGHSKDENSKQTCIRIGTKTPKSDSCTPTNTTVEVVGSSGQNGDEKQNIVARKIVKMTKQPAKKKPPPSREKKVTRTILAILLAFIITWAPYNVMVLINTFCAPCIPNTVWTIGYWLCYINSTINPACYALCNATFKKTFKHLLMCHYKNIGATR
# [9] = target: T5, human recombinant M3 muscarinic receptor expressed in CHO cells (Homo sapiens, UniProt P20309); assay: M3 binding assay (human recombinant); details: Examples 15-17; unit inferred; read-out: binding affinity for cholinergic (muscarinic) receptor M3
# T5 construct: expressed in transfected cells; host or cells: CHO cells
# T5 sequence (P20309 whole entry): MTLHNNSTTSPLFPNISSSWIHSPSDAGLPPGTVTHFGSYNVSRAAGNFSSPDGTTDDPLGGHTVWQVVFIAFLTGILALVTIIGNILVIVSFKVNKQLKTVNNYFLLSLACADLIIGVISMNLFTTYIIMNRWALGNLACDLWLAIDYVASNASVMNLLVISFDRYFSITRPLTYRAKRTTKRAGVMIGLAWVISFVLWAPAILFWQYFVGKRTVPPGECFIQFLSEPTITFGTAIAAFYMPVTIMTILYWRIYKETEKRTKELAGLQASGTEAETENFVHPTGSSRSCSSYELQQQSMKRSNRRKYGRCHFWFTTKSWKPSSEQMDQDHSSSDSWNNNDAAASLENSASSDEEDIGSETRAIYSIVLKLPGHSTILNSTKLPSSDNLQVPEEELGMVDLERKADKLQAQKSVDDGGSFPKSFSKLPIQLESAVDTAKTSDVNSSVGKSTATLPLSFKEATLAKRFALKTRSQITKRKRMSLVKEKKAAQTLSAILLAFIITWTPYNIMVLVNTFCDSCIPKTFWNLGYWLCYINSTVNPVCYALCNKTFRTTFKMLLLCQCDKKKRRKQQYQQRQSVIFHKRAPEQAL
# T3 sequence (P30546 whole entry): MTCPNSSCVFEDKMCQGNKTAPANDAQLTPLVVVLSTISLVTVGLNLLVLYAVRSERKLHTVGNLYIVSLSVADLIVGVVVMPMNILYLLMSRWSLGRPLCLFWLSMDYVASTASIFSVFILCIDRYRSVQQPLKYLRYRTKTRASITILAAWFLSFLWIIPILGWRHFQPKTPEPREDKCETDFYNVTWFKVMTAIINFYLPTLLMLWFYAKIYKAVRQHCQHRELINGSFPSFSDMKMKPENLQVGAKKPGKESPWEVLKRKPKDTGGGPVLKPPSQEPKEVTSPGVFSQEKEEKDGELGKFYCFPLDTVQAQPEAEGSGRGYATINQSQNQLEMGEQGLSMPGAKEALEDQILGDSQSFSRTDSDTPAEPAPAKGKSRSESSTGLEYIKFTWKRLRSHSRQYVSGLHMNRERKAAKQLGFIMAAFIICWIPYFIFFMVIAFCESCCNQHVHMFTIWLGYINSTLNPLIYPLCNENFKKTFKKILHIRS
# Sequence of cloned hERG channels expressed in HEK293 cells (Q12809 whole entry): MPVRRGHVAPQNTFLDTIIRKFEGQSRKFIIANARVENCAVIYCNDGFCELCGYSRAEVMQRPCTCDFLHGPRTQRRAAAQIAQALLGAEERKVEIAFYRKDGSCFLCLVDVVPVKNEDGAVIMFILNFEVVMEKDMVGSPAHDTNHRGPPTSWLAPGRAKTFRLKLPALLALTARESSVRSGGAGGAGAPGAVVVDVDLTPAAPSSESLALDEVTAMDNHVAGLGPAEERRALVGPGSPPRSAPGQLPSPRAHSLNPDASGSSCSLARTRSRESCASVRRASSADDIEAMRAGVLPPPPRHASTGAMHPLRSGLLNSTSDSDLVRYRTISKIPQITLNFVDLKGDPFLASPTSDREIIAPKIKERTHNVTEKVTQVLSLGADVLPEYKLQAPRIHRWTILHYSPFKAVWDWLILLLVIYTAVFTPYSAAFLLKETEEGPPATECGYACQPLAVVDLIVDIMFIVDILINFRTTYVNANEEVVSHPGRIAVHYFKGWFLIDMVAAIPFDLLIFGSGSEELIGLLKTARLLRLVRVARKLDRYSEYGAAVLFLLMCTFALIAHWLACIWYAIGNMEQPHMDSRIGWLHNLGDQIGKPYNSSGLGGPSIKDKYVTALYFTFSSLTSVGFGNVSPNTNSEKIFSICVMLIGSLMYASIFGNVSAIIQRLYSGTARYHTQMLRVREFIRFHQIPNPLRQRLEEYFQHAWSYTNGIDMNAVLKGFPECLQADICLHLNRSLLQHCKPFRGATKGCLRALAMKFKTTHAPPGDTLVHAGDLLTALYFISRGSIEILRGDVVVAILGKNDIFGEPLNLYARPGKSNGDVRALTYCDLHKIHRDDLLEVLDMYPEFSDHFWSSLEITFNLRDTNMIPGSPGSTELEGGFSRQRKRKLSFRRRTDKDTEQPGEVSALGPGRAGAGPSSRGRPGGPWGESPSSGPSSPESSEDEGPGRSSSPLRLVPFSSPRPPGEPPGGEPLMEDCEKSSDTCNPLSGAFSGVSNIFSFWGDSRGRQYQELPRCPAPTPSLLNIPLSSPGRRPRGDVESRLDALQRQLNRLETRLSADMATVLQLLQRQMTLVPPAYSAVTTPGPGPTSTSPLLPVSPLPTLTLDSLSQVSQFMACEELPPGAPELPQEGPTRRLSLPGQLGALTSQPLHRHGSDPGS
# Sequence of Histamine, H2 (P25021 whole entry): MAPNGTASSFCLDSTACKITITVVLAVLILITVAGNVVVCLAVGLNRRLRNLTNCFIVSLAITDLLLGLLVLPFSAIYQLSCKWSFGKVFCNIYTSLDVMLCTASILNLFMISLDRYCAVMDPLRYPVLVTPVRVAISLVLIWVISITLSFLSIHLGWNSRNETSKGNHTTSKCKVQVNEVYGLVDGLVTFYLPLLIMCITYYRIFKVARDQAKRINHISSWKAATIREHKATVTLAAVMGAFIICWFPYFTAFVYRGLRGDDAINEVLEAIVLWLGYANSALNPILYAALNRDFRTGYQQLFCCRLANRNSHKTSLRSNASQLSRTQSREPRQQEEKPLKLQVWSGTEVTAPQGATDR
# Sequence of Norepinephrine Transporter (P23975 whole entry, species assumed): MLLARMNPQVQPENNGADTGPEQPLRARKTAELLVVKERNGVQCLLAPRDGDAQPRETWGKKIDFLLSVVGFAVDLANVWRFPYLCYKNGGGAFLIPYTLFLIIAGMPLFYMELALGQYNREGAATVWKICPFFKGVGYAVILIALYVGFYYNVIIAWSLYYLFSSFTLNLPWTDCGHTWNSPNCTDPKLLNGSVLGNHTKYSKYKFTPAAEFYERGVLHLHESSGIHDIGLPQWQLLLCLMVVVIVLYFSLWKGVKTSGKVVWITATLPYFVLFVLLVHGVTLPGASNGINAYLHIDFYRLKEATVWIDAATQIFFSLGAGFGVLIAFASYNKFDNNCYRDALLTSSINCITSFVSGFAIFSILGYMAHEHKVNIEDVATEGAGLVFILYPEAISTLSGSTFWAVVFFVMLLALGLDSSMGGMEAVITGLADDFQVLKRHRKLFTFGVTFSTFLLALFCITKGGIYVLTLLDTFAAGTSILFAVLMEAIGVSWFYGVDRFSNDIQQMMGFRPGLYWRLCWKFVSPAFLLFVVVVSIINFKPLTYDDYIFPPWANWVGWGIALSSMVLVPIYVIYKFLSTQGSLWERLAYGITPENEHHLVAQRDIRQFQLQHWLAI
smiles,measurement,setting,value
C[N+]1(C)CCC(OC(=O)C(c2ccccc2)c2ccccc2)CC1 [4-DAMP methiodide],Ki,[1],37.5 nM
same,Ki,[2],0.27 nM
CCN(CC)CC1CCCCN1CC(=O)N1c2ccccc2C(=O)Nc2cccnc21 (centres unmarked) [AF-DX 116],Ki,[3],63 nM
O=C(O)CCN1CCC(=C2c3ccccc3COc3ccccc32)CC1 [Compound 8a],"Percent Inhibition, Norepinephrine Transporter",[4],−3.9%
same,"Percent Inhibition, Histamine, H2","Histamine, H2",33.4%
same,"Percent Inhibition, HERG",[5],4%
same,Average Bout-Length,male Wistar rats; 30 mg/kg PO at CT-18,12.2 min
same,Maximum Bout Length,male Wistar rats; 30 mg/kg PO at CT-18,28.9 min
same,NREM Accum.,male Wistar rats; 30 mg/kg PO at CT-18,65.8 min
same,NREM Peak (%/hr),male Wistar rats; 30 mg/kg PO at CT-18,75.5 %/hr
same,Onset,male Wistar rats; 30 mg/kg PO at CT-18,65 min
same,"Percent Inhibition, Muscarinic, M1 (Human Recombinant)",[6]; 1.0E−6,3.3%
CC(C)(CN1CCC(N2c3ccccc3Sc3ccccc32)CC1)C(=O)O.Cl [Compound UU1],Ki,[7],< 500 nM and 13.6 nM
same,Ki,"[8]; Examples 15-17, unit inferred, read-out: binding affinity for cholinergic (muscarinic) receptor M2",> 10000 nM
same,"sleep continuity, as assessed by sleep bout length","male Wistar rats; 10 mg/kg PO at CT-18, male Wistar rats",increased sleep continuity
same,total sleep time post-treatment,"male Wistar rats; 10 mg/kg PO at CT-18, versus methylcellulose vehicle",significantly increased total sleep time
same,net longest sleep bout post treatment,"male Wistar rats; adjusted using a baseline value at least 24 hours prior, functional criteria list",greater than or equal to 3 minutes
same,average sleep bout,"male Wistar rats; at absolute peak, functional criteria list",greater than 5 minutes
same,nonREM peak time value,"male Wistar rats; by the third hour after administration, functional criteria list",greater than 55 % nonREM sleep per hour
same,cumulative total increase in nonREM sleep,"male Wistar rats; doses that produce maximum sleep consolidation, functional criteria list",not less than 20 minutes
same,REM sleep inhibition,male Wistar rats; functional criteria list,does not appreciably inhibit REM sleep
same,locomotor activity inhibition relative to the normal effects of sleep,male Wistar rats; functional criteria list,does not disproportionately inhibit locomotor activity
same,longest sleep bout,male Wistar rats; functional criteria list,greater than 13 minutes
same,rebound insomnia,male Wistar rats; functional criteria list,does not produce appreciable amounts of rebound insomnia
same,body temperature adverse effects,male Wistar rats; rats,no evidence of causing disproportional locomotor inhibition or body temperature adverse effects
same,disproportional locomotor inhibition,male Wistar rats; rats,no evidence of causing disproportional locomotor inhibition or body temperature adverse effects
same,Ki,"[6]; Examples 15-17, unit inferred, read-out: binding affinity for cholinergic (muscarinic) receptor M1",> 10000 nM
same,Ki,[9],> 10000 nM
"CN(C)CCC=C1c2ccccc2COc2ccccc21 [Doxepin, doxepin HCl, reference compound]","Percent Inhibition, Histamine, H2","Histamine, H2",74.7%
same,"Percent Inhibition, HERG",[5],23%**
same,"Percent Inhibition, Muscarinic, M2 (Human Recombinant)",[8]; 1.0E−6,74.0%
O[Si](CCCN1CCCCC1)(c1ccccc1)C1CCCCC1 (centres unmarked) [HHSID],Ki,[1],281 nM
